Experimental data published in publication PMC12817919 (Journal of Virology, 2025).
Like-named read-outs stand apart in the source and are kept apart here.

Legend:
wild-type RSV = experiment: microbe, parasite or virus in culture; assay type: cell-based
RSV K394R = assay type: cell-based, respiratory syncytial virus (RSV); details: for Fold resistance (RSV K394R): fold change in the EC50 relative to that of wild-type RSV
RSV K399N = assay type: cell-based, respiratory syncytial virus (RSV); details: for Fold resistance (RSV K399N): fold change in the EC50 relative to that of wild-type RSV
RSV T400A = assay type: cell-based, respiratory syncytial virus (RSV); details: for Fold resistance (RSV T400A): fold change in the EC50 relative to that of wild-type RSV
RSV A2 P18 (Control) = experiment: Antiviral activity against passaged virus in HEp-2 cells (FFA); assay type: cell-based, respiratory syncytial virus (RSV); details: human respiratory syncytial virus, HEp-2, MOI 0.2, FFA
[1] = tested on: Lonafarnib escape virus populations P18 (RSV A2); experiment: as above; assay type: cell-based, respiratory syncytial virus (RSV); details: human respiratory syncytial virus, HEp-2, MOI 0.2, FFA
RSV ON1 P18 (Control) = experiment: as above; assay type: cell-based, respiratory syncytial virus (RSV); details: human respiratory syncytial virus, HEp-2, MOI 0.2, FFA
[2] = tested on: Lonafarnib escape virus populations P18 (RSV ON1); experiment: as above; assay type: cell-based, respiratory syncytial virus (RSV); details: human respiratory syncytial virus, HEp-2, MOI 0.2, FFA
RSV V127G = assay type: cell-based, respiratory syncytial virus (RSV)
RSV L141F = assay type: cell-based, respiratory syncytial virus (RSV)
RSV T400I = assay type: cell-based, respiratory syncytial virus (RSV)
RSV F488L = assay type: cell-based, respiratory syncytial virus (RSV)
RSV A2 [3] = experiment: microbe, parasite or virus in culture; assay type: cell-based; details: human respiratory syncytial virus; HEp-2 (RSV A2, MOI = 0.2), 72 h, FFA
RSV ON1 = experiment: microbe, parasite or virus in culture; assay type: cell-based; details: human respiratory syncytial virus; HEp-2 (RSV ON1, MOI = 0.2), 72 h, FFA
in vitro = assay type: cell-based; details: human; HEp-2 cells, 72 h, CCK8
Experimental: HEp-2 cells (1.3 × 10^4) were seeded in 96-well plates for 20 h. The indicated compounds in a 3-fold dilution series were added to the cells, and three wells were performed in parallel. After 72 h, the cells were incubated with DMEM containing 10% FBS and CCK8 reagent (Beyotime Biotechnology, cat#C0038) for 30 min at 37°C. The absorbance at 450 nm and 600 nm was read using the PerkinElmer EnSight reader.

[4] = tested on: DS-Cav1 mutants (T335I, K394R, S398L, K399N, T400A, and D401E); assay type: binding; details: D401E compared with DS-Cav1
RSV F protein mutants = experiment: GFP-split cell-cell fusion assay mediated by transfected F or F mutants; assay type: cell-based, respiratory syncytial virus (RSV); details: 5, 1, 0.5 µM, 24 h, HEK293T GFP-split cells
Experimental: (§1) Cell–cell fusion assays were performed using a split-GFP system (GFP1-10 and GFP11) ([76]). Briefly, HEK293T cells stably expressing GFP1-10 were transfected with 1,000 ng of plasmids encoding either wild-type F or F mutants containing various amino acid substitutions. Alternatively, the cells were infected with RSV and treated with 0.1% DMSO or the indicated compounds at concentrations of 5, 1, and 0.5 µM. Then, the transfected or infected cells were co-cultured with HEK293T cells stably expressing GFP11 at a 1:1 ratio (8 × 10^4 cells/well) for 24 h in a 96-well plate. Images were acquired per well on an Operetta CLS High-Content Screening System (PerkinElmer).

RSV = details: oral administration; cited from earlier work
RSV F protein [5] = target: T1, RSV F protein (Human respiratory syncytial virus A, UniProt P03420); assay type: cell-based; set-up: expressed in transfected cells; host or cells: HEK293T; details: HEK293T cells expressing RSV F, western blot
Target sequence in this assay (P03420 137-574): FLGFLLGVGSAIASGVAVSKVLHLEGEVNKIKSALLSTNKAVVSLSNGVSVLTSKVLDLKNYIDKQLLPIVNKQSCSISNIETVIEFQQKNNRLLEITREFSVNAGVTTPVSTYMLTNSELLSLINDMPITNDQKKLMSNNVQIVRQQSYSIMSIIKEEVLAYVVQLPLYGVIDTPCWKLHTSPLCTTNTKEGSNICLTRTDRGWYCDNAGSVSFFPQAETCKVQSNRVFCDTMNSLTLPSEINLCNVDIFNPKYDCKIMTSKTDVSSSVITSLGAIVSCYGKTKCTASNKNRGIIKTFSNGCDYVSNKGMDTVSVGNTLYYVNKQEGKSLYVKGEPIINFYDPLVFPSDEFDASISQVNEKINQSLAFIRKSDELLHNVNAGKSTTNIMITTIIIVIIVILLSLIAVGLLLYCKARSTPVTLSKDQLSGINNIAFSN
Target sequence in this assay (P03420 26-109): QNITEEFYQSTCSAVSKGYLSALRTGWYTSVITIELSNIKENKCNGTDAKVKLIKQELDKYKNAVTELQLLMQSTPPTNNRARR

RSV A2 [6] = experiment: GFP-split cell-cell fusion assay mediated by RSV infection; assay type: cell-based, respiratory syncytial virus (RSV); details: RSV A2 MOI 1; 5, 1, 0.5 µM, 24 h, HEK293T GFP-split cells
Experimental: as §1

RSV ON1-GFP [7] = experiment: Antiviral efficacy in primary human bronchial epithelial cells (GFP intensity); assay type: cell-based, respiratory syncytial virus (RSV); details: HBECs, MOI 2, 1 µM, 72 h
Experimental: The inhibitory effects of compounds on RSV ON1-GFP were evaluated in HBEC. […] At 72 h post-infection, the infected cells were visualized using an EVOS M5000 Cell Imaging System (Thermo Fisher Scientific).

RSV ON1-GFP [8] = experiment: Antiviral drug assay using lung airway organoids; details: 96 h, MOI 1
From the text: In brief, HBECs were initially cultured in PneumaCult-Ex Plus Medium ([sequence] Technologies, cat#05040), then seeded at 2 × 10⁵ cells/well into anti-adherence rinsing solution ([sequence] Technologies, cat#07010)-treated AggreWell400 24-well plates ([sequence] Technologies, cat#34415). They were maintained in PneumaCult Apical-Out Airway Organoid Medium ([sequence] Technologies, cat#100-0620) for 6 days. Subsequently, the cells were transferred to similarly treated flat-bottom 24-well plates and cultured in the same medium for an additional 9 days.
The airway organoids were infected with RSV ON1-GFP at an MOI of 1 for 4 h. […] At 96 h post-infection, cell-free medium was harvested, and a TCID50 assay was performed to determine the viral titer. The organoids were fixed in parallel in 4% PFA, permeabilized with 0.5% Triton X-100 (1 h), blocked with 5% BSA (Macklin, cat#B824162; 2 h), and incubated overnight at 4°C with primary antibodies: Goat anti-Human p63/TP73L polyclonal antibody (R&D Systems, cat#AF1916), Rabbit anti-Human Mucin 5AC polyclonal antibody (Abways, cat#CY6826), and Mouse anti-acetylated tubulin monoclonal antibody (Sigma-Aldrich, cat#T7451). […] The GFP fluorescence intensity was quantified using ImageJ analysis software (RRID: SCR_003070; National Institutes of Health, NIH).

RSV F protein [9] = target: T1, RSV F protein; assay type: cell-based; set-up: HEp-2 cells were infected with RSV (MOI = 10); endogenous in cells; host or cells: HEp-2 cells infected with RSV (viral protein made in the infected cell); details: HEp-2, RSV MOI 10, 1 µM, 18 h
Target sequence in this assay (P03420 137-574): as the sequence (P03420 137-574) above
Target sequence in this assay (Q96SW2 whole entry, further chain, the tested form may be a part): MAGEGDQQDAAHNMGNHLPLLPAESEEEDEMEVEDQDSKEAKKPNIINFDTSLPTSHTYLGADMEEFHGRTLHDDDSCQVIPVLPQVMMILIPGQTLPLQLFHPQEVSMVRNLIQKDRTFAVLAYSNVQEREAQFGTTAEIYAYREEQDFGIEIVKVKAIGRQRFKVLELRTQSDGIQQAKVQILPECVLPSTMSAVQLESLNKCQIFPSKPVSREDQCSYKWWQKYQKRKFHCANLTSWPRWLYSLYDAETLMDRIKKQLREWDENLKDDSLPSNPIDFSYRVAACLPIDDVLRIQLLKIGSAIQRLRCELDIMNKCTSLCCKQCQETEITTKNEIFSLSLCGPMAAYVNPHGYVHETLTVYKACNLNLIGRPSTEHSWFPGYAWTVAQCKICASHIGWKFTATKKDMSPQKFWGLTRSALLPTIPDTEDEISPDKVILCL
Target sequence in this assay (P03420 26-109): as the sequence (P03420 26-109) above

[10] = human respiratory syncytial virus, wild-type RSV, Table 2 cross-resistance experiment, HEp-2, read-out: EC50 RSV
[11] = Table 2 cross-resistance experiment, HEp-2, read-out: EC50 RSV K394R
[12] = Table 2 cross-resistance experiment, HEp-2, read-out: EC50 RSV K399N
[13] = Table 2 cross-resistance experiment, HEp-2, read-out: EC50 RSV T400A

## Cc1ccc2nc(N3CCS(=O)(=O)c4ccccc4C3)nc(NCC3(N)COC3)c2c1 [AK0529]
wild-type RSV; [10]
  EC50: 1.3 nM
RSV K394R; [11]
  EC50: 6550 nM
RSV K394R
  Fold resistance (RSV K394R): 4,983.3
RSV K399N; [12]
  EC50: 2250 nM
RSV K399N
  Fold resistance (RSV K399N): 1,713.3
RSV T400A; [13]
  EC50: 9850 nM
RSV T400A
  Fold resistance (RSV T400A): 7,491.3

## Cc1cn2nc([C@@H]3CCCCN3C(=O)c3cc(Cl)ccc3NS(C)(=O)=O)cc2nc1N1CC[C@H](N)C1 [GS-5806]
wild-type RSV; [10]
  EC50: 0.1 nM
RSV K394R; [11]
  EC50: 192 nM
RSV K394R
  Fold resistance (RSV K394R): 1,673.9
RSV K399N; [12]
  EC50: 4.4 nM
RSV K399N
  Fold resistance (RSV K399N): 38.3
RSV T400A; [13]
  EC50: 28.8 nM
RSV T400A
  Fold resistance (RSV T400A): 250.1

## CS(=O)(=O)CCCn1c(Cn2c(=O)n(CC(F)(F)F)c3ccncc32)cc2cc(Cl)ccc21 [JNJ-53718678]
wild-type RSV; wild-type RSV, Table 2 cross-resistance experiment, HEp-2, read-out: EC50 RSV
  EC50: 0.7 nM
RSV K394R; [11]
  EC50: 10100 nM
RSV K394R
  Fold resistance (RSV K394R): 15,582.2
RSV K399N; [12]
  EC50: 248 nM
RSV K399N
  Fold resistance (RSV K399N): 382.2
RSV T400A; [13]
  EC50: 11600 nM
RSV T400A
  Fold resistance (RSV T400A): 17,920.3

## NC(=O)N1CCC(CC(=O)N2CCC([C@H]3c4ncc(Br)cc4CCc4cc(Cl)cc(Br)c43)CC2)CC1 [Lonafarnib]
RSV A2 P18 (Control); HEp-2, Lineage 1
  EC50: 40 nM
RSV A2 P18 (Control); HEp-2, Lineage 2
  EC50: 50 nM
RSV A2 P18 (Control); HEp-2, Lineage 3
  EC50: 40 nM
[1]; HEp-2, Lineage 1
  EC50: 800 nM
[1]; HEp-2, Lineage 2
  EC50: 1080 nM
[1]; HEp-2, Lineage 3
  EC50: 790 nM
RSV ON1 P18 (Control); HEp-2, Lineage 1
  EC50: 90 nM
RSV ON1 P18 (Control); HEp-2, Lineage 2
  EC50: 130 nM
RSV ON1 P18 (Control); HEp-2, Lineage 3
  EC50: 130 nM
[2]; HEp-2, Lineage 1
  EC50: 3360 nM
[2]; HEp-2, Lineage 2
  EC50: 4100 nM
[2]; HEp-2, Lineage 3
  EC50: 3500 nM
wild-type RSV; human respiratory syncytial virus, 72 h, Wild-type, HEp-2, MOI 0.2, 3 days, FFA, read-out: EC50
  EC50: 46 ± 10 nM
wild-type RSV; human respiratory syncytial virus, HEp-2, Wild-type, EC90 = 9^1/HillSlope*EC50
  EC90: 190 ± 120 nM
wild-type RSV; [10]
  EC50: 45.6 nM
RSV V127G; EC90 = 9^1/HillSlope*EC50
  EC90: 177 ± 38 nM
RSV V127G; HEp-2, MOI 0.2, 3 days, FFA
  EC50: 44 ± 5 nM
RSV L141F; EC90 = 9^1/HillSlope*EC50
  EC90: 631 ± 125 nM
RSV L141F; HEp-2, MOI 0.2, 3 days, FFA
  EC50: 79 ± 19 nM
RSV K394R; K394R, EC90 = 9^1/HillSlope*EC50
  EC90: 15000 ± 7330 nM
RSV K394R; K394R, HEp-2, MOI 0.2, 3 days, FFA, read-out: EC50
  EC50: 5130 ± 1690 nM
RSV K394R; [11]
  EC50: 3840 nM
RSV K399N; K399N, EC90 = 9^1/HillSlope*EC50
  EC90: 1550 ± 277 nM
RSV K399N; K399N, HEp-2, MOI 0.2, 3 days, FFA, read-out: EC50
  EC50: 450 ± 32 nM
RSV K399N; [12]
  EC50: 406 nM
RSV T400A; T400A, EC90 = 9^1/HillSlope*EC50
  EC90: 4640 ± 440 nM
RSV T400A; T400A, HEp-2, MOI 0.2, 3 days, FFA, read-out: EC50
  EC50: 1520 ± 127 nM
RSV T400A; [13]
  EC50: 1120 nM
RSV T400I; EC90 = 9^1/HillSlope*EC50
  EC90: 4610 ± 663 nM
RSV T400I; HEp-2, MOI 0.2, 3 days, FFA
  EC50: 1510 ± 184 nM
RSV F488L; EC90 = 9^1/HillSlope*EC50
  EC90: 1900 ± 160 nM
RSV F488L; HEp-2, MOI 0.2, 3 days, FFA
  EC50: 700 ± 69 nM
RSV A2 [3]
  EC50: 40 ± 2 nM
RSV ON1
  EC50: 60 ± 20 nM
In vitro
  CC50: 17900 ± 1130 nM
[4]
  binding affinity for lonafarnib (SPR): significantly decreased the binding affinity
RSV F protein mutants; T335I, S398L, K394R, K399I/N, T400A/I, and D401E mutants
  inhibition of mutant-induced cell-cell fusion activity: did not or only slightly inhibit
RSV F protein mutants; V76A, K80N, L119I, and D392G/N mutants
  inhibition of mutant-induced cell-cell fusion activity: significantly inhibited
RSV
  RSV load in murine infection model: dose-dependent reduction in the RSV load
RSV F protein [5]
  effect on F protein levels: did not affect F protein levels

## NCc1ccc2c(c1)nc(CN1C(=O)C3(CC3)c3ccc(F)cc31)n2CCCC(F)(F)F [RV521]
wild-type RSV; [10]
  EC50: 0.1 nM
RSV K394R; [11]
  EC50: 179 nM
RSV K394R
  Fold resistance (RSV K394R): 2,462.8
RSV K399N; [12]
  EC50: 0.4 nM
RSV K399N
  Fold resistance (RSV K399N): 5.4
RSV T400A; [13]
  EC50: 12.6 nM
RSV T400A
  Fold resistance (RSV T400A): 173.6

## O=C1CCC(N2C(=O)c3cccc(NCCOCCOCCOCCC(=O)N4CCC(CC(=O)N5CCC([C@H]6c7ncc(Br)cc7CCc7cc(Cl)cc(Br)c76)CC5)CC4)c3C2=O)C(=O)N1 (stereo partly drawn) [compound 0179841, 4-((2-(2-(2-(3-(4-(2-(4-((R)−3,10-dibromo-8-chloro-6,11-dihydro-5H-benzo[5,6]cyclohepta[1,2-b]pyridin-11-yl)piperidin-1-yl)−2-oxoethyl)piperidin-1-yl)−3-oxopropoxy)ethoxy)ethoxy)ethyl)amino)−2-(2,6-dioxopiperidin-3-yl)isoindoline-1,3-dione]
RSV A2 [3]
  EC50: 450 ± 40 nM
RSV ON1
  EC50: 460 ± 30 nM
In vitro
  CC50: > 100000 nM
RSV A2 [6]
  inhibition of RSV-induced cell-cell fusion activity: significantly inhibited
RSV ON1-GFP [7]
  RSV infection level (GFP intensity): significant decrease in the RSV infection level
RSV ON1-GFP [8]; 5 µM, TCID50 of supernatant
  reduction of viral titers compared with the DMSO control: more than 100 fold
RSV ON1-GFP [8]; 5, 1, 0.5 µM
  viral loads and protein expression in lung airway organoids: significantly reduced viral loads and protein expression in a dose-dependent manner
RSV F protein [5]
  effect on F protein levels: time- and concentration-dependent
RSV F protein [9]
  degradation of the F protein during RSV infection: induced significant degradation of the F protein
